Reference: US5399487A, “6-peptidylamino-1-naphthalenesulfonamides useful as fluorogenic proteolytic enzyme substrates” (Haematologic Technologies, Inc., priority 1993, dated 1995)

Columns and labels:
Type in all cases: biochemical
[1] = biological target: T1, thrombin (IIa) (Homo sapiens, UniProt P00734); test: Fluorogenic enzyme assay (Example 5); design: key to Hydrolysis kinetic constants, IIa (symbol b): Slow substrate hydrolysis, no kinetic constants calculated; conditions: for Time (min) for 10% hydrolysis, IIa: enzyme 100 nM; for Time (min) for 10% hydrolysis, IIa / TIME TO 10% HYDROLYSIS (HOURS), IIa: substrate 1 μM
T1 construct: 0.5 nM human thrombin (IIa)
Experimental: (§1) Enzyme assays (except factor VIIa assays, see below) were conducted in 20 mM Tris, 150 mM NaCl, pH 7.4 (TBS) at room temperature (22° C.). The final volume for all reaction mixtures was 2.0 ml. Fluorogenic substrates were dissolved in DMSO to a stock concentration of 10 mM. The 10 mM stock solution was diluted in TBS to the final working concentration prior to all assays. Enzyme was added to mixtures containing buffer components and substrate and the initial rate of substrate hydrolysis was measured as the change in fluorescent intensity over time, corresponding to the generation of the particular 6-amino-1-naphthalenesulfonamide fluorophore from the provided substrate. Quantitation of substrate hydrolysis was accomplished by establishing a standard curve from the appropriate fluorescent moiety. Fluorescence was monitored (continuously or discontinuously) using a Perkin Elmer fluorescence spectrophotometer, model MPF-44A, equipped with a standard chart recorder. The fluorophore was detected using monochrometers set at an excitation wavelength of 352 nm and an emission wavelength of 470 nm. Light scattering artifacts were minimized using a 399 nm cut off filter in the emission light beam.
(§2) The kinetic constants of substrate hydrolysis were determined using the non-linear least squares regression analysis program ENZFITTER (Cambridge, UK). This program was used to iteratively fit initial rates of substrate hydrolysis to the Michaelis-Menten equation and the kinetic constants of substrate hydrolysis (Km) and (kcat) were calculated.

[2] = biological target: factor Xa (Homo sapiens, UniProt P00742); test: Fluorogenic enzyme assay (Example 5); conditions: for Time (min) for 10% hydrolysis, Xa: enzyme 100 nM; for Time (min) for 10% hydrolysis, Xa / TIME TO 10% HYDROLYSIS (HOURS), Xa: substrate 1 μM; for TIME TO 10% HYDROLYSIS (HOURS), Xa: 10 nM enzyme
Chain of factor Xa (P00742 235-488 limits assumed): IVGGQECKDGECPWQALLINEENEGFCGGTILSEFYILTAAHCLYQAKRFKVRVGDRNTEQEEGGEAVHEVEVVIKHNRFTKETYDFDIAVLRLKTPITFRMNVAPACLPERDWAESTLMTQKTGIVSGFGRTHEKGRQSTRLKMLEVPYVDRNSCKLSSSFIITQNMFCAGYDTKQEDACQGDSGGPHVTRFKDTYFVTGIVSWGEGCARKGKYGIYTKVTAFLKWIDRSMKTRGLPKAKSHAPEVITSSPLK
Chain of factor Xa (P00742 41-179 limits assumed): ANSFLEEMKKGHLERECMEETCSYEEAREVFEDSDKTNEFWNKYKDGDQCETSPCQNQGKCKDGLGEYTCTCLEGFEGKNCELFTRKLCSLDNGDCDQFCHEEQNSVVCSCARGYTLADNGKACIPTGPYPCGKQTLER
Experimental: as §1, §2

[3] = biological target: activated protein C (APC) (Homo sapiens, UniProt P04070); test: Fluorogenic enzyme assay (Example 5); design: key to Hydrolysis kinetic constants, APC (symbol b): Slow substrate hydrolysis, no kinetic constants calculated; key to Kinetic constants, APC (symbol b): slow substrate hydrolysis, no kinetic constants calculated; conditions: for Time (min) for 10% hydrolysis, APC: enzyme 100 nM; for Time (min) for 10% hydrolysis, APC / TIME TO 10% HYDROLYSIS (HOURS), APC: substrate 1 μM; for TIME TO 10% HYDROLYSIS (HOURS), APC: 10 nM enzyme
Chain of activated protein C (APC) (P04070 212-461 limits assumed): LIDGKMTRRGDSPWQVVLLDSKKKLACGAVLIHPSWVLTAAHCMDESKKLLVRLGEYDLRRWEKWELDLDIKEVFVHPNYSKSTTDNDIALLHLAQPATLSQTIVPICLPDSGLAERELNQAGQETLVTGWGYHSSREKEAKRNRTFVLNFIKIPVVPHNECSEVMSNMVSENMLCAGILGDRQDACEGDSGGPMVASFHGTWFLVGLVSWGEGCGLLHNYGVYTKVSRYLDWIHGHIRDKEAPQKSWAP
Chain of activated protein C (APC) (P04070 43-197 limits assumed): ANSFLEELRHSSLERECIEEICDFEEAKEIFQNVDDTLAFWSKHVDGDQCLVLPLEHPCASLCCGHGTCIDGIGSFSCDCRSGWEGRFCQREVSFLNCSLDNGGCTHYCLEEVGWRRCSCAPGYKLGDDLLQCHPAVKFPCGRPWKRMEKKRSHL
Experimental: as §1, §2

[4] = biological target: plasmin (Plm) (Homo sapiens, UniProt P00747); test: Fluorogenic enzyme assay (Example 5); conditions: substrate 1 μM; for Time (min) for 5% hydrolysis, Plm: footnote b, enzyme 100 nM; for TIME TO 10% HYDROLYSIS (HOURS), Plm: 10 nM enzyme
Chain of plasmin (Plm) (P00747 581-810 limits assumed, species assumed): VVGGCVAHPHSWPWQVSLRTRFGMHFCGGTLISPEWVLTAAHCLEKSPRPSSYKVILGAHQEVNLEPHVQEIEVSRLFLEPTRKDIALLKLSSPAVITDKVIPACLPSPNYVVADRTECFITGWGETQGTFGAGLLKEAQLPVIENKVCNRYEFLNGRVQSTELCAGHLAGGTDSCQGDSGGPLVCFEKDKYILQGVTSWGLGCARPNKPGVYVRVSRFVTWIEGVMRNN
Chain of plasmin (Plm) (P00747 97-580 limits assumed, species assumed): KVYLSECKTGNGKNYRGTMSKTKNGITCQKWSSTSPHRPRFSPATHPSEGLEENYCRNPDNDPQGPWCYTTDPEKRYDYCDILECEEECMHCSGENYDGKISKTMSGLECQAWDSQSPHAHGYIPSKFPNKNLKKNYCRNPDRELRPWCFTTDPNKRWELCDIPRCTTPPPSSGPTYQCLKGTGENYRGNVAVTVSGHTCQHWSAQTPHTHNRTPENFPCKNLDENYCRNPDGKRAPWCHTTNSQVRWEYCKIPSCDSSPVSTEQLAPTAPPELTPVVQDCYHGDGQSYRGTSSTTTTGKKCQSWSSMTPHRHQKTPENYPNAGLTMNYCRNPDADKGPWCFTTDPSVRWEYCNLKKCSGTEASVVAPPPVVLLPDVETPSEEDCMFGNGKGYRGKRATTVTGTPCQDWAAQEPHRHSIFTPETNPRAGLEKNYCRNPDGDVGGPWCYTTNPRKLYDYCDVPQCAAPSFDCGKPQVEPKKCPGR
Experimental: as §1, §2

[5] = biological target: tissue plasminogen activator (t-PA) (Homo sapiens, UniProt P00750); test: Fluorogenic enzyme assay (Example 5); conditions: substrate 1 μM; for hydrolysis, t-PA (symbol N.D.): after 24 hrs, enzyme 100 nM; for TIME TO 10% HYDROLYSIS (HOURS), t-PA: 100 nM enzyme
Chain of tissue plasminogen activator (t-PA) (P00750 36-562, species assumed): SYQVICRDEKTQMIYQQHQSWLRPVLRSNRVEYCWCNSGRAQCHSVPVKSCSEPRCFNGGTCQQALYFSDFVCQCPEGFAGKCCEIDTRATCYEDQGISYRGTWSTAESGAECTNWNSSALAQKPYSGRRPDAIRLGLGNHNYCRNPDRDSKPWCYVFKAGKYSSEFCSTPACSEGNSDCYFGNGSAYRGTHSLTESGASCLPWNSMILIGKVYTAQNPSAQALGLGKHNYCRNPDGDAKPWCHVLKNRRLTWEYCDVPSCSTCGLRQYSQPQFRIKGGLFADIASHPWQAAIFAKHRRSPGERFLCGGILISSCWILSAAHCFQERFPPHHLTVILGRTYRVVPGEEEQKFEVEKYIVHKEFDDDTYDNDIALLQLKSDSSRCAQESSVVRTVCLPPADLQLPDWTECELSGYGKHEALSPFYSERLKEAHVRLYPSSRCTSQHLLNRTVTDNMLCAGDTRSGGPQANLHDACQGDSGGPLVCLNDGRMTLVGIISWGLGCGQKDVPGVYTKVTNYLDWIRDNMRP
Experimental: as §1, §2

[6] = biological target: urokinase (u-PA) (Homo sapiens, UniProt P00749); test: Fluorogenic enzyme assay (Example 5); conditions: substrate 1 μM; for TIME TO 10% HYDROLYSIS (HOURS), u-PA: 100 nM enzyme
Experimental: as §1, §2

[7] = biological target: T2, factor VIIa (Homo sapiens, UniProt P08709); test: Fluorogenic enzyme assay, relative hydrolysis rates (Table 8); conditions: at 100 hours; 10 nM enzyme, substrate 1 μM
T2 construct: directly measure the enzymatic activity of factor VIIa in the presence and absence of tissue factor and phospholipid
T2 sequence (P08709 213-466 limits assumed): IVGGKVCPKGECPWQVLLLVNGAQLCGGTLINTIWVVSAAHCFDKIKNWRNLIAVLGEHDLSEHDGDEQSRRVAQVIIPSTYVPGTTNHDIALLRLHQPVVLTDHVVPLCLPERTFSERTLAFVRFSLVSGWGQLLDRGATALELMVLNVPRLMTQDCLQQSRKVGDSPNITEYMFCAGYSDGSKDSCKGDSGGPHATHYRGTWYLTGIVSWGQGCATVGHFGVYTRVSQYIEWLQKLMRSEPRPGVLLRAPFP
T2 sequence (P08709 61-212 limits assumed): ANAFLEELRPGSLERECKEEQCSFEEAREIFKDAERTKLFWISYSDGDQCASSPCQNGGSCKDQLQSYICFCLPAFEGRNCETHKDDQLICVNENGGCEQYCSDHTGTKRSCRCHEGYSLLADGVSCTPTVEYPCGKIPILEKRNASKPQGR
Experimental: as §1
Factor VII assays were conducted in 20 mM HEPES, 150 mM NaCl, 5 mM CaCl2, pH 7.4 (HBS) at 37° C. The final volume for all reactions was 1.6 ml. 6-(Mes-D-Leu-Gly-Arg)amino-1-(N,N-diethyl)naphthalenesulfonamide was dissolved in DMSO to a stock concentration of 10 mM. This 10 mM stock solution of was diluted in HBS to final working concentration prior to all assays. For reactions involving tissue factor (TF) and phospholipid vesicles, recombinant human tissue factor was solubilized in either 0.04% n-dodecyl octaethylene glycol (C12 E8) or 0.8% octyl glucoside. The TF/n-dodecyl octaethylene glycol was then relipidated into PCPS or PC vesicles by a 30 minute incubation step as described by Lawson & Mann, J. Biol. Chem. 266: 11317-11327 (1991). TF/octyl glucoside was relipidated into PC or PCPS vesicles by a thirty minute incubation step followed by exhaustive dialysis. The final concentration of tissue factor used in the studies described here ranged from 2 to 50 nM depending on the nature of the experiment.
Fifteen minutes prior to the start of all reactions factor VIIa was added to the reaction system. This incubation period was followed by the addition of substrate (1 μM to 400 μM) to the mixture to start the reaction. In experiments designed to determine kinetic constants of substrate hydrolysis, 50 nM rVIIa was used when no tissue factor was present in the reaction system, while 0.5 nM rVIIa was used when tissue factor was present in the reaction system. The rate of substrate hydrolysis was measured by change in fluorescence over time, which corresponded with the generation of the 6-amino-1-(N,N-diethyl)naphthalenesulfonamide from the provided substrate. The kinetic constants of 6-(Mes-D-Leu-Gly-Arg)amino-1-(N,N-diethyl)naphthalenesulfonamide hydrolysis as a function of factor VIIa/tissue factor complex assembly are shown in Table 10.

[8] = biological target: factor IXa (Homo sapiens, UniProt P00740); test: Fluorogenic enzyme assay (Example 5); design: key to Kinetic constants, IXa (symbol b): slow substrate hydrolysis, no kinetic constants calculated
Chain of factor IXa (P00740 227-461 limits assumed): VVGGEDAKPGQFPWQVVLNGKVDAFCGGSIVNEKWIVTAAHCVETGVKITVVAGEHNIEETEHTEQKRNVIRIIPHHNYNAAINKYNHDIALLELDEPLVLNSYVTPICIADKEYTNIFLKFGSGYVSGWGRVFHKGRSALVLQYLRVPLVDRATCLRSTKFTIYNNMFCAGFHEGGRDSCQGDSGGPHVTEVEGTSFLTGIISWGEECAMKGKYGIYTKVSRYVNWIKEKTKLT
Chain of factor IXa (P00740 47-191 limits assumed): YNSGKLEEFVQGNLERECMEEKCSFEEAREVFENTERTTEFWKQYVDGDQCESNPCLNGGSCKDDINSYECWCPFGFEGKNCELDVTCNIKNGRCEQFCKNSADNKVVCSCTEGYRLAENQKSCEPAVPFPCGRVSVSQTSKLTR
Experimental: as §1, §2

| SMILES | Time (min) for 10% hydrolysis, IIa [1] | Km ([2]; Table 7) | kcat /Km, Xa ([2]; Table 7) | kcat, Xa ([2]; Table 7) | Time (min) for 10% hydrolysis, Xa [2] | Time (min) for 10% hydrolysis, APC [3] | Time (min) for 5% hydrolysis, Plm [4] | hydrolysis, t-PA (symbol N.D.) [5] | Km ([1]; Table 9) | kcat, IIa ([1]; Table 9) | TIME TO 10% HYDROLYSIS (HOURS), Xa [2] | Km ([2]; Table 9) | kcat /Km, Xa ([2]; Table 9) | kcat, Xa ([2]; Table 9) | TIME TO 10% HYDROLYSIS (HOURS), APC [3] | TIME TO 10% HYDROLYSIS (HOURS), Plm [4] | TIME TO 10% HYDROLYSIS (HOURS), t-PA [5] | TIME TO 10% HYDROLYSIS (HOURS), u-PA [6] | hydrolysis, VIIa (symbol d) [7] | other results |
| --- | --- | --- | --- | --- | --- | --- | --- | --- | --- | --- | --- | --- | --- | --- | --- | --- | --- | --- | --- | --- |
| Br.CC(C)(C)NS(=O)(=O)c1cccc2cc(NC(=O)[C@H](CCCNC(=N)N)NC(=O)OCc3ccccc3)ccc12 [(N^α -Z)ArgANSNR1 R2; H; t-C4 H9] | 34 min | 114 µM | 487 M⁻¹ s⁻¹ | 0.06 s⁻¹ | 45 min | 45 min | 910 min | N.D. (Less than 5% hydrolysis after 24 hrs.) | – | – | – | – | – | – | – | – | – | – | – | Km ([1]; Table 7): 24 µM; kcat /Km, IIa ([1]; Table 7): 930 M⁻¹ s⁻¹; kcat, IIa ([1]; Table 7): 0.02 s⁻¹; Km ([3]; Table 7): 738 µM; kcat /Km, APC ([3]; Table 7): 540 M⁻¹ s⁻¹; kcat, APC ([3]; Table 7): 0.4 s⁻¹; Time (min) for 10% hydrolysis, u-PA ([6]; enzyme 100 nM): 1260 min |
| Br.N=C(N)NCCC[C@H](NC(=O)OCc1ccccc1)C(=O)Nc1ccc2c(S(=O)(=O)N3CCOCC3)cccc2c1 [(N^α -Z)ArgANSNR1 R2; morpholyl] | 76 min | 80 µM | 625 M⁻¹ s⁻¹ | 0.05 s⁻¹ | 45 min | 171 min | 1220 min | N.D. (Less than 5% hydrolysis after 24 hrs.) | – | – | – | – | – | – | – | – | – | – | – | Hydrolysis kinetic constants, IIa (symbol b) ([1]; Table 7): b; Hydrolysis kinetic constants, APC (symbol b) ([3]; Table 7): b; hydrolysis, u-PA (symbol N.D.) ([6]; after 24 hrs, enzyme 100 nM): N.D. (Less than 5% hydrolysis after 24 hrs.) |
| CCCNS(=O)(=O)c1cccc2cc(NC(=O)[C@H](CCCNC(=N)N)NC(=O)[C@H](Cc3ccccc3)NC(=O)[C@@H]3CCCN3C(=O)OC(C)(C)C)ccc12 [BocPFR-ANSNHC3 H7] | – | – | – | – | – | – | – | – | 44.4 µM | 0.04 s⁻¹ | 9 h | 230 µM | 260 M⁻¹ s⁻¹ | 0.06 s⁻¹ | 3 h | 22 h | 4 h | 5 h | d (hydrolysis at 100 hours was less than 10%.) | TIME TO 10% HYDROLYSIS (HOURS), IIa ([1]; 10 nM enzyme): 4 h; kcat /Km, IIa ([1]; Table 9): 900 M⁻¹ s⁻¹; Kinetic constants, APC (symbol b) ([3]; Table 9): b; Kinetic constants, IXa (symbol b) ([8]; Table 9): b; hydrolysis, IXa (symbol d) ([8]; at 100 hours, 100 nM enzyme, substrate 1 μM): d (hydrolysis at 100 hours was less than 10%.) |
| Br.Br.CC(C)C[C@@H](N)C(=O)N1CCC[C@H]1C(=O)N[C@@H](CCCNC(=N)N)C(=O)Nc1ccc2c(S(=O)(=O)N3CCCCC3)cccc2c1 [D-LPR-ANSN(CH2)5] | – | – | – | – | – | – | – | – | 7.7 µM | 11.6 s⁻¹ | 0.4 h | 400 µM | 7250 M⁻¹ s⁻¹ | 2.9 s⁻¹ | 0.02 h | 0.33 h | 1.3 h | 1 h | d (hydrolysis at 100 hours was less than 10%.) | TIME TO 10% HYDROLYSIS (HOURS), IIa ([1]; 1 nM enzyme (footnote c)): 0.01 h; Km ([3]; Table 9): 160 µM; kcat /Km, APC ([3]; Table 9): 6880 M⁻¹ s⁻¹; kcat, APC ([3]; Table 9): 1.1 s⁻¹; TIME TO 10% HYDROLYSIS (HOURS), IXa ([8]; 100 nM enzyme, substrate 1 μM): 4 h; Km ([8]; Table 9): 343 µM; kcat, IXa ([8]; Table 9): 0.4 s⁻¹; kcat/Km, IXa ([8]; Table 9): 1170 M⁻¹ s⁻¹ |
